Test results reported in US8481459B2, “Chemical inhibitors of ethylene biosynthesis” (Academia Sinica, priority 2010, dated 2013).

Tested on: gene expression in etiolated eto1-4 seedlings
Experiment: Transcriptional profiling (ATH1 GeneChip microarray) of etiolated eto1-4 seedlings
Type: in vivo, Arabidopsis thaliana
Procedure: For chemical treatments, seeds were sown on 0.5×MS agar medium supplemented with 10 μM chemicals (AVG, compounds 9393, 9370, and 7303) or DMSO (as control). Arabidopsis seeds were stratified in the dark at 4° C. for 4 days, then germinated in the dark for 3 days at 22° C. Approximately 2,000 etiolated seedlings of the wild type or eto1-4 were used to collect tissues for preparation of total RNA in each microarray experiment with Arabidopsis ATH1 GeneChip (Affymetrix). Extraction of RNA followed an established protocol (Chang, et al. (1993) Plant Mol. Biol. Rep. 11, 113-117). Total RNA (10 μg) was used to prepare biotinylated cRNA for hybridization to ATH1 GeneChip in the experiments disclosed herein. Experiments were repeated by 2 independent biological duplicates, and candidate genes present in both experiments were selected for further analysis. The MASS method was used for data analysis and normalization by all sample medium. Candidate genes were selected by the following criteria. First, genes with 1.5-fold differential expression between the wild type and eto1-4 were selected as the master gene pool, which was then used for comparison in treatments with AVG and individual exemplary compounds. Data were presented in hierarchical clustering and Venn diagram format. Agilent GeneSpring GX and Bioconductor software were used to analyze the expression profile data. Gene Ontology descriptions were generated by GeneSpring GX and further referred to the TAR GO database. Raw data are available in the GEO database (http://www.ncbi.nlm.nih.gov/geo) with Accession no. GSE20897.
The filtered and normalized expression data set from 22810 probes on the ATH1 Genechip was used for hierarchical clustering of gene expression profiles for comparison between AVG and the exemplary invention compounds in eto1-4. It was identified that 1,446 genes show at least 1.5-fold difference in expression between the WT and eto1-4 and used them as the master gene pool for clustering analysis (FIG. 7A). […] These genes likely contribute to the etiolated phenotype of eto1-4 by responding to elevated endogenous ethylene. To determine whether the exemplary compounds have specific r overlapping functions with AVG to suppress the eto1-4 phenotype, genes that are regulated by individual exemplary invention compounds and AVG for Venn diagram analysis were clustered (FIG. 7B). More than 63% of genes (356/561 for compound 9393; 389/561 for compound 9370; 399/561 for compound 7303; FIG. 7B) with expression associated with AVG were co-regulated by the exemplary invention compounds, which indicates an overlap function in suppression of the ethylene phenotype in eto1-4. […] Next genes co-regulated by all of the exemplary invention compounds and AVG were examined by performing a clustering analysis using the co-regulated genes identified in FIG. 7B: 356 (compound 9393 vs AVG), 389 (compound 9370 vs AVG) and 399 genes (compound 7303 vs AVG). It was uncovered that 276 genes were co-regulated by all of the exemplary invention compounds and AVG (FIG. 7C and Table 2). On the basis of GO descriptions generated by Gene Spring GX and TAIR database, the 276 genes were divided into subgroups related to their biological functions (Table 2). […] In addition, stress- and pathogenesis-related genes were among the co-regulated genes, possibly because ethylene is involved in both biotic and abiotic stresses.
Genes (1446 non-redundant loci) were selected by 1.5-fold differential expression between eto1-4 and WT as the master pool for analysis. These genes were used for comparison between chemical treatments by AVG and the exemplary invention compounds. The finalized 276 genes that are co-regulated by AVG and all of the exemplary invention compounds are shown. Locus ID also present in Nemhauser et al. (Nemhauser, et al. (2006) Cell 126, 467-475).

[1] = of 1446 genes differentially expressed between WT and eto1-4, 10 μM
[2] = ratio eto1-4 treated to eto1-4 (no treatment)

COc1ccc(C2CC(=O)c3cnc(Nc4ccccc4)nc3C2)cc1 (centres unmarked) [Compound 7303]
number of genes co-regulated with AVG (of 561 genes associated with AVG, 10 μM): 399 genes
number of genes regulated (expression reverted close to WT) [1]: 650 genes
percentage of genes regulated (expression reverted close to WT) [1]: 45.0%
number of genes regulated specifically, not related to AVG treatment (of all genes regulated by the compound (629, 728, 650), 10 μM): 251 genes
Signal Fold Change AT1G03457, unknown biological function [2]: 3.04
Signal Fold Change AT1G03660, unknown biological function [2]: 1.59
Signal Fold Change AT1G05010 ACC oxidase [2]: 0.30
Signal Fold Change AT1G05760 jacalin lectin protein [2]: 3.70
Signal Fold Change AT1G06720 expressed protein [2]: 1.26
Signal Fold Change AT1G07280, unknown biological function [2]: 0.37
Signal Fold Change AT1G07560 leucine-rich repeat protein kinase [2]: 1.99
Signal Fold Change AT1G08650 phosphoenolpyruvate carboxylase kinase [2]: 3.40
Signal Fold Change AT1G08990 glycogenin glucosyltransferase [2]: 2.60
Signal Fold Change AT1G09530 phytochrome interacting factor 3 [2]: 0.29
Signal Fold Change AT1G10760 starch excess protein (SEX1) [2]: 0.43
Signal Fold Change AT1G13430, response to cytokinin stimulus, sulfotransferase protein [2]: 0.34
Signal Fold Change AT1G14540 anionic peroxidase [2]: 0.42
Signal Fold Change AT1G15380 lactoylglutathione lyase [2]: 2.99
Signal Fold Change AT1G17970, unknown biological function [2]: 2.35
Signal Fold Change AT1G18880 proton-dependent oligopeptide transport (POT) protein [2]: 2.51
Signal Fold Change AT1G20190, cell wall organization and biogenesis, expansin (EXP11) [2]: 0.43
Signal Fold Change AT1G22740 Ras-related protein (RAB7) [2]: 3.52
Signal Fold Change AT1G23060, unknown biological function [2]: 0.35
Signal Fold Change AT1G26930, unknown biological function [2]: 0.40
Signal Fold Change AT1G27380 p21-rho-binding domain-containing protein [2]: 2.14
Signal Fold Change AT1G29520, unknown biological function [2]: 2.27
Signal Fold Change AT1G30750, unknown biological function [2]: 2.87
Signal Fold Change AT1G31710 copper amine oxidase [2]: 5.43
Signal Fold Change AT1G32410 vacuolar protein sorting 55 protein [2]: 1.75
Signal Fold Change AT1G32560 late embryogenesis abundant group 1 domain-containing protein [2]: 1.89
Signal Fold Change AT1G33470, unknown biological function [2]: 2.38
Signal Fold Change AT1G33790, unknown biological function [2]: 0.21
Signal Fold Change AT1G34040, unknown biological function [2]: 2.17
Signal Fold Change AT1G35350, unknown biological function [2]: 4.37
Signal Fold Change AT1G35612, unknown biological function [2]: 3.19
Signal Fold Change AT1G42470, unknown biological function [2]: 4.79
Signal Fold Change AT1G44800, unknown biological function [2]: 2.25
Signal Fold Change AT1G44830 AP2-containing transcription factor [2]: 0.38
Signal Fold Change AT1G48480 leucine-rich repeat trans-membrane protein kinase [2]: 3.43
Signal Fold Change AT1G49660 expressed protein [2]: 0.47
Signal Fold Change AT1G50560 cytochrome P450 [2]: 2.50
Signal Fold Change AT1G52830 auxin-responsive protein [2]: 4.43
Signal Fold Change AT1G56010 transcription activator NAC1 [2]: 2.97
Signal Fold Change AT1G56020, unknown biological function [2]: 0.49
Signal Fold Change AT1G58070, unknown biological function [2]: 2.37
Signal Fold Change AT1G59590, unknown biological function [2]: 3.94
Signal Fold Change AT1G59740 proton-dependent oligopeptide transport (POT) protein [2]: 0.32
Signal Fold Change AT1G62290 aspartyl protease protein [2]: 0.38
Signal Fold Change AT1G62510 lipid transfer protein [2]: 2.20
Signal Fold Change AT1G62620, unknown biological function [2]: 3.52
Signal Fold Change AT1G64200 V-ATPase E subunit [2]: 2.73
Signal Fold Change AT1G65510, unknown biological function [2]: 4.19
Signal Fold Change AT1G65920, unknown biological function [2]: 0.36
Signal Fold Change AT1G66230 myb transcription factor (MYB20) [2]: 3.14
Signal Fold Change AT1G67030 zinc finger (C2H2 type) protein [2]: 10.77
Signal Fold Change AT1G68230, unknown biological function [2]: 2.59
Signal Fold Change AT1G68520 zinc finger (B-box type) protein [2]: 1.15
Signal Fold Change AT1G69570 Dof-type zinc finger-containing protein [2]: 6.31
Signal Fold Change AT1G70210 cyclin delta-1 [2]: 3.72
Signal Fold Change AT1G70850 Bet v I allergen protein [2]: 22.18
Signal Fold Change AT1G70890 major latex protein [2]: 5.05
Signal Fold Change AT1G71030 myb transcription factor (MYB2) [2]: 8.09
Signal Fold Change AT1G71740, unknown biological function [2]: 3.04
Signal Fold Change AT1G72230 plastocyanin like protein [2]: 2.98
Signal Fold Change AT1G73220 sugar transporter protein [2]: 5.76
Signal Fold Change AT1G73300 serine carboxypeptidase S10 protein [2]: 1.69
Signal Fold Change AT1G73310 serine carboxypeptidase S10 protein [2]: 4.07
Signal Fold Change AT1G73330 protease inhibitor [2]: 31.27
Signal Fold Change AT1G73590 auxin efflux carrier protein [2]: 2.03
Signal Fold Change AT1G73640, small GTPase mediated signal transduction, Ras-related GTP-binding protein [2]: 2.12
Signal Fold Change AT1G73830 bHLH protein [2]: 0.20
Signal Fold Change AT1G75500, unknown biological function [2]: 3.18
Signal Fold Change AT1G76220, unknown biological function [2]: 4.28
Signal Fold Change AT1G76500, photomorphogenesis, DNA-binding protein [2]: 0.38
Signal Fold Change AT1G76540 cell division control protein [2]: 2.97
Signal Fold Change AT1G76790, unknown biological function [2]: 3.71
Signal Fold Change AT1G78240 dehydration-responsive protein [2]: 0.54
Signal Fold Change AT1G80380 phosphoribulokinase [2]: 2.20
Signal Fold Change AT2G01910, microtubule nucleation, microtubule associated protein (MAP65/ASE1) protein [2]: 2.92
Signal Fold Change AT2G02820 myb transcription factor (MYB88) [2]: 4.90
Signal Fold Change AT2G02850 plantacyanin [2]: 0.15
Signal Fold Change AT2G16580 auxin-responsive protein [2]: 2.29
Signal Fold Change AT2G16990, unknown biological function [2]: 3.14
Signal Fold Change AT2G19590 ACC oxidase [2]: 0.28
Signal Fold Change AT2G19970, unknown biological function [2]: 3.39
Signal Fold Change AT2G20080, unknown biological function [2]: 5.75
Signal Fold Change AT2G20670, unknown biological function [2]: 4.29
Signal Fold Change AT2G21820, unknown biological function [2]: 1.33
Signal Fold Change AT2G21880 Ras-related GTP-binding protein [2]: 4.62
Signal Fold Change AT2G22860 phytosulfokines 2 (PSK2) [2]: 2.10
Signal Fold Change AT2G24150 expressed protein (response to hormone stimulus) [2]: 1.90
Signal Fold Change AT2G25900 zinc finger (CCCH-type) protein [2]: 1.73
Signal Fold Change AT2G26070 expressed protein (response to ethylene stimulus) [2]: 0.28
Signal Fold Change AT2G26440 pectinesterase protein [2]: 0.27
Signal Fold Change AT2G26740 epoxide hydrolase [2]: 0.26
Signal Fold Change AT2G27140 heat shock protein [2]: 2.74
Signal Fold Change AT2G27370, unknown biological function [2]: 2.51
Signal Fold Change AT2G28305, unknown biological function [2]: 2.57
Signal Fold Change AT2G28410, unknown biological function [2]: 2.79
Signal Fold Change AT2G29340 short-chain dehydrogenase [2]: 0.39
Signal Fold Change AT2G29440, toxin catabolic process, glutathione S-transferase [2]: 0.26
Signal Fold Change AT2G30360 CBL-interacting protein kinase 11 (CIPK11) [2]: 3.63
Signal Fold Change AT2G33380 calcium-binding RD20 protein [2]: 0.22
Signal Fold Change AT2G33990, unknown biological function [2]: 2.69
Signal Fold Change AT2G34300, unknown biological function [2]: 0.39
Signal Fold Change AT2G34500 cytochrome P450 [2]: 8.32
Signal Fold Change AT2G34510, unknown biological function [2]: 2.21
Signal Fold Change AT2G34700, unknown biological function [2]: 0.31
Signal Fold Change AT2G35300 late embryogenesis abundant group 1 domain-containing protein [2]: 2.86
Signal Fold Change AT2G35710 glycogenin glucosyltransferase [2]: 2.25
Signal Fold Change AT2G36350 protein kinase [2]: 0.54
Signal Fold Change AT2G36410, unknown biological function [2]: 3.05
Signal Fold Change AT2G37130 peroxidase 21 [2]: 2.23
Signal Fold Change AT2G38760, unknown biological function [2]: 5.36
Signal Fold Change AT2G38790, unknown biological function [2]: 3.21
Signal Fold Change AT2G39010 aquaporin [2]: 1.95
Signal Fold Change AT2G39310, unknown biological function [2]: 3.40
Signal Fold Change AT2G39980, unknown biological function [2]: 0.25
Signal Fold Change AT2G40420 amino acid transporter [2]: 3.56
Signal Fold Change AT2G41090, unknown biological function [2]: 0.11
Signal Fold Change AT2G41230, unknown biological function [2]: 0.05
Signal Fold Change AT2G42320, unknown biological function [2]: 0.54
Signal Fold Change AT2G43050 pectinesterase protein [2]: 3.42
Signal Fold Change AT2G43535 trypsin inhibitor [2]: 6.32
Signal Fold Change AT2G44110 seven transmembrane MLO protein [2]: 0.43
Signal Fold Change AT2G44130 kelch repeat containing F-box protein [2]: 4.62
Signal Fold Change AT2G47510 fumarate hydratase [2]: 0.48
Signal Fold Change AT2G47550 pectinesterase protein [2]: 0.49
Signal Fold Change AT2G48030, unknown biological function [2]: 2.22
Signal Fold Change AT3G04010 glycosyl hydrolase [2]: 3.80
Signal Fold Change AT3G05990, signal transduction, phosphodiesterase leucine-rich repeat protein [2]: 2.33
Signal Fold Change AT3G09020, unknown biological function [2]: 3.42
Signal Fold Change AT3G09780 protein kinase [2]: 0.40
Signal Fold Change AT3G10080, unknown biological function [2]: 2.14
Signal Fold Change AT3G10340 phenylalanine ammonia-lyase [2]: 2.63
Signal Fold Change AT3G11550, unknown biological function [2]: 2.97
Signal Fold Change AT3G12030, DNA repair, expressed protein [2]: 2.06
Signal Fold Change AT3G12500 basic endocexemplary inase [2]: 3.58
Signal Fold Change AT3G13980, unknown biological function [2]: 6.58
Signal Fold Change AT3G14370 protein kinase [2]: 0.36
